In patent US7833967B2, “Synthetic antimicrobial polypeptides” (priority 2003, dated 2010):

System: E. coli TOP10
Experiment: Suicide expression system (SES) growth inhibition
Format: cell-based
[1] = Table 1, 0.1% inducer (arabinose), pBAD/gIIIA in E. coli TOP10, Bioscreen C 37° C., end point OD450 vs control vector
[2] = Table 4, variants of SEQ ID NO:10, re-tested in the Bioscreen C
[3] = Table 3, variants of SEQ ID NO:5, re-tested in the Bioscreen C
[4] = Table 5, mixed-motif library, re-tested in the Bioscreen C

| Substance | Growth inhibition (%) [2] [%] | also measured |
| --- | --- | --- |
| 12 (RRRRPPFRPPFRPPFRPPFRPPFRPPF; Synthetic antimicrobial peptide) [compound 12] | – | Growth inhibition (%) [1]: 76% |
| 80 (RRRPFRPPFRPPIRPPVRPPVRPPFRP; Synthetic antimicrobial peptide) [compound 80] | 81 | – |
| 57 (RRRPRPIPRPFPRPIPRPIPRPFPRPF; Synthetic antimicrobial peptide) [compound 57] | – | Growth inhibition (%) [3]: 73% |
| 195 (RRRPFRPPIRPPFRPPVRPPVRPPVRP; Synthetic antimicrobial peptide) [compound 195] | 76 | – |
| 146 (RRRPLRPPFRPPIRPPFRPPFRPPLRP; Synthetic antimicrobial peptide) [compound 146] | 68 | – |
| 63 (RRRPRPFPRPFPRPVPRPFPRPFPRQSNCSRTKTHLRRGSE; Synthetic antimicrobial peptide) [compound 63] | – | Growth inhibition (%) [3]: 80% |
| 184 (RRRPIRPPIRPPFRPPLRPPFRPPFRP; Synthetic antimicrobial peptide) [compound 184] | 78 | – |
| 153 (RRRPIRPPFRPPIRPPVRPPIRPPFRP; Synthetic antimicrobial peptide) [compound 153] | 68 | – |
| 8 (RRRFPRPFPRPFPRPFPRPFPRPFPRP; Synthetic antimicrobial peptide) [compound 8] | – | Growth inhibition (%) [1]: 38% |
| 166 (RRRPLRPPVRPPFRPPVRPPVRPPLRP; Synthetic antimicrobial peptide) [compound 166] | 55 | – |
| 72 (RRRPIRPPFRPPFRPPFRPPFRPPFRP; Synthetic antimicrobial peptide) [compound 72] | 49 | – |
| 94 (RRRPFRPPVRPPIRPPVRPPFRPPFRP; Synthetic antimicrobial peptide) [compound 94] | 77 | – |
| 88 (RRRPFRPPLRPPLRPPVRPPVRPPFRP; Synthetic antimicrobial peptide) [compound 88] | 82 | – |
| 237 (RRRPPRLPRPFPLRPPPRVPRPVPVRP; Synthetic antimicrobial peptide) [compound 237] | – | Growth inhibition (%) [4]: 96% |
| 133 (RRRPFRPPIRPPFRPPVRPPIRPPVRP; Synthetic antimicrobial peptide) [compound 133] | 62 | – |
| 224 (RRRPPRLPRPFPIRPPPRVPRPFPVRP; Synthetic antimicrobial peptide) [compound 224] | – | Growth inhibition (%) [4]: 93% |
| 212 (RRRPPRLPRPFPFRPPPRFPRPVPIRP; Synthetic antimicrobial peptide) [compound 212] | – | Growth inhibition (%) [4]: 96% |
| 98 (RRRPFRPPFRPPVRPPIRPPLRPPFRP; Synthetic antimicrobial peptide) [compound 98] | 63 | – |
| 71 (RRRPLRPPIRPPFRPPIRPPFRPPFRP; Synthetic antimicrobial peptide) [compound 71] | 82 | – |
| 200 (RRRPFRPPFRPPLRPPFRPPVRPPFRP; Synthetic antimicrobial peptide) [compound 200] | 87 | – |
| 107 (RRRPFRPPFRPPVRPPFRPPIRPPFRP; Synthetic antimicrobial peptide) [compound 107] | 69 | – |
| 125 (RRRPIRPPFRPPLRPPFRPPVRPPVRP; Synthetic antimicrobial peptide) [compound 125] | 73 | – |
| 211 (RRRPPRLPRPFPFRPPPRFPRPIPFRP; Synthetic antimicrobial peptide) [compound 211] | – | Growth inhibition (%) [4]: 96% |
| 220 (RRRPPRLPRPFPIRPPPRFPRPFPVRP; Synthetic antimicrobial peptide) [compound 220] | – | Growth inhibition (%) [4]: 90% |
| 33 (RRRPRPFPRPFPRPFPRPFPRPFPRPF; Synthetic antimicrobial peptide) [compound 33] | – | Growth inhibition (%) [3]: 79% |
| 243 (RRRPPRLPRPFPVRPPPRLPRPVPFRP; Synthetic antimicrobial peptide) [compound 243] | – | Growth inhibition (%) [4]: 91% |
